ChEMBL document CHEMBL3414497, “Overcoming mutagenicity and ion channel activity: optimization of selective spleen tyrosine kinase inhibitors” (J Med Chem, 2015)
Blank lines part the entries; values can stand above or below the molecule they belong to.

Columns and labels:
[1] = Plasma concentration in collagen-induced Lewis rat arthritic model at 3 mg/kg, po qd measured at 8 hrs; assay type: ADME, organism-based; set-up: dose 3 mg/kg, route oral
[2] = Plasma concentration in collagen-induced Lewis rat arthritic model at 1 mg/kg, po qd measured at 4 hrs; assay type: ADME, organism-based; set-up: dose 1 mg/kg, route oral
[3] = Plasma concentration in collagen-induced Lewis rat arthritic model at 10 mg/kg, po qd measured at 8 hrs; assay type: ADME, organism-based; set-up: dose 10 mg/kg, route oral
Plasma [4] = assay: Plasma concentration in collagen-induced Lewis rat arthritic model at 10 mg/kg, po qd measured immediately post compound dosing; assay type: ADME, organism-based; set-up: dose 10 mg/kg, route oral; conditions: in vivo
[5] = Plasma concentration in collagen-induced Lewis rat arthritic model at 3 mg/kg, po qd measured at 2 hrs; assay type: ADME, organism-based; set-up: dose 3 mg/kg, route oral
[6] = Cmax in collagen-induced Lewis rat arthritic model at 3 mg/kg, po qd; assay type: ADME, organism-based; set-up: dose 3 mg/kg, route oral; conditions: in vivo
[7] = Plasma concentration in collagen-induced Lewis rat arthritic model at 1 mg/kg, po qd measured at 24 hrs; assay type: ADME, organism-based; set-up: dose 1 mg/kg, route oral
[8] = Plasma concentration in collagen-induced Lewis rat arthritic model at 1 mg/kg, po qd measured at 2 hrs; assay type: ADME, organism-based; set-up: dose 1 mg/kg, route oral
Plasma [9] = assay: Plasma concentration in collagen-induced Lewis rat arthritic model at 1 mg/kg, po qd measured immediately post compound dosing; assay type: ADME, organism-based; set-up: dose 1 mg/kg, route oral; conditions: in vivo
[10] = Plasma concentration in collagen-induced Lewis rat arthritic model at 3 mg/kg, po qd measured at 24 hrs; assay type: ADME, organism-based; set-up: dose 3 mg/kg, route oral
[11] = Plasma concentration in collagen-induced Lewis rat arthritic model at 1 mg/kg, po qd measured at 8 hrs; assay type: ADME, organism-based; set-up: dose 1 mg/kg, route oral
physchem [12] = conditions: octanol/buffer
in vivo [13] = conditions: rat, po
in vivo [14] = conditions: rat, po; remark: listed apart in the source
Plasma [15] = assay: Plasma concentration in collagen-induced Lewis rat arthritic model at 3 mg/kg, po qd measured immediately post compound dosing; assay type: ADME, organism-based; set-up: dose 3 mg/kg, route oral; conditions: in vivo
[16] = Plasma concentration in collagen-induced Lewis rat arthritic model at 3 mg/kg, po qd measured at 4 hrs; assay type: ADME, organism-based; set-up: dose 3 mg/kg, route oral
[17] = Plasma concentration in collagen-induced Lewis rat arthritic model at 10 mg/kg, po qd measured at 4 hrs; assay type: ADME, organism-based; set-up: dose 10 mg/kg, route oral
Rattus norvegicus = species: Rattus norvegicus; conditions: in vivo, po
[18] = Plasma concentration in collagen-induced Lewis rat arthritic model at 10 mg/kg, po qd measured at 24 hrs; assay type: ADME, organism-based; set-up: dose 10 mg/kg, route oral
physchem [19] = assay: physchem
[20] = Plasma concentration in collagen-induced Lewis rat arthritic model at 10 mg/kg, po qd measured at 2 hrs; assay type: ADME, organism-based; set-up: dose 10 mg/kg, route oral
in vivo [21] = conditions: rat, plasma, po

- concentration at 8 h [1]: 100 nM
- concentration at 4 h [2]: 100 nM
- concentration at 8 h [3]: 500 nM
- concentration (Plasma [4]): 10 nM
- concentration at 2 h [5]: 60 nM
- Cmax [6]: 200 nM
- concentration at 24 h [7]: 5 nM
- concentration at 2 h [8]: 40 nM
- concentration (Plasma [9]): 5 nM
- concentration at 24 h [10]: 7 nM
- concentration at 8 h [11]: 90 nM
- logD at 500 µM (physchem [12]): 2.1
- half-life (in vivo [13]): 2.7 h
- bioavailability (in vivo [14]): 19%
- concentration (Plasma [15]): 7 nM
- concentration at 4 h [16]: 200 nM
- concentration at 4 h [17]: 500 nM
- CL free (Rattus norvegicus): 710 mL/min/kg
- concentration at 24 h [18]: 10 nM
- pKa at 100 µM (physchem [19]): 9
- concentration at 2 h [20]: 200 nM
- CL/F (in vivo [21]): 33 mL/min/kg
SMILES: Cc1cc(C)nc(Nc2cc(N[C@@H]3CCCC[C@@H]3N)cnc2C(N)=O)c1

- half-life (in vivo [13]): 3.5 h
- bioavailability (in vivo [14]): 29%
- CL free (Rattus norvegicus): 100 mL/min/kg
- CL/F (in vivo [21]): 25 mL/min/kg
SMILES: COc1cccc2[nH]c(-c3nc(N[C@@H]4CCOC[C@@H]4N)cnc3C(N)=O)cc12

- half-life (in vivo [13]): 2.8 h
- CL free (Rattus norvegicus): 255 mL/min/kg
- CL/F (in vivo [21]): 44 mL/min/kg
SMILES: NC(=O)c1ncc(N[C@@H]2CCCC[C@@H]2N)nc1-c1cc2ccccc2[nH]1
